According to DBAASP:
In brackets after ≈: the same amount, converted by molar mass.

Legend:
Assay in all cases: ≥ marks a high value that may be exact or a test limit, other limits are often not marked, values filed in µg/mL are converted to µM
[1] = test system: Escherichia coli ML-35
[2] = test system: Staphylococcus epidermidis ATCC 12228
[3] = test system: Salmonella enterica subsp. enterica serovar Typhimurium ATCC 14028
[4] = test system: Escherichia coli D21
[5] = test system: Bacillus megaterium Bm11
[6] = test system: Serratia marcescens ATCC 8100
[7] = test system: Escherichia coli CCARM 1238
[8] = test system: Trichosporon beigelii KCTC 7707
[9] = test system: Pseudomonas aeruginosa 4007
[10] = test system: Staphylococcus aureus CCARM 3090
[11] = test system: Pseudomonas aeruginosa 4891
[12] = test system: Escherichia coli CCARM 1229
[13] = test system: Staphylococcus aureus CCARM 3518
[14] = test system: Candida albicans KCTC 7270

MIC [1] | MIC [2] | MIC [3] | MIC [4] | MIC [5] | MIC [6] | MIC [7] | MIC [8] | MIC [9] | MIC [10] | MIC [11] | MIC [12] | MIC [13] | MIC [14] | SMILES
4 µM (≈ 7.94 µg/mL) | > 64 µM | 16 µM (≈ 31.7 µg/mL) | 2 µM (≈ 3.97 µg/mL) | 16 µM (≈ 31.7 µg/mL) | 8 µM (≈ 15.9 µg/mL) | – | – | – | – | – | – | – | – | NC(N)=NCCC[C@H](NC(=O)[C@@H](N)CCCN=C(N)N)C(=O)N[C@@H](CCCN=C(N)N)C(=O)N1CCC[C@H]1C(=O)N[C@@H](CCCN=C(N)N)C(=O)N1CCC[C@H]1C(=O)N1CCC[C@H]1C(=O)N[C@@H](Cc1ccc(O)cc1)C(=O)N[C@@H](Cc1c[nH]c2ccccc12)C(=O)N1CCC[C@H]1C(=O)N[C@@H](CCCN=C(N)N)C(=O)N1CCC[C@H]1C(=O)N[C@@H](CCCN=C(N)N)C(=O)N1CCC[C@H]1C(=O)N1CCC[C@H]1C(=O)O [RRRPRPPYWPRPRPP]
– | – | – | – | – | – | 2 µM (≈ 4.24 µg/mL) | 16 µM (≈ 33.9 µg/mL) | 4 µM (≈ 8.48 µg/mL) | 4 µM (≈ 8.48 µg/mL) | 4 µM (≈ 8.48 µg/mL) | 2 µM (≈ 4.24 µg/mL) | 4 µM (≈ 8.48 µg/mL) | 16 µM (≈ 33.9 µg/mL) | CC[C@H](C)[C@H](NC(=O)[C@H](CCCCN)NC(=O)[C@H](CCCCN)NC(=O)[C@@H](NC(=O)[C@H](C)NC(=O)[C@H](CCC(=O)O)NC(=O)[C@H](Cc1cnc[nH]1)NC(=O)[C@@H](NC(=O)[C@H](CCCCN)NC(=O)[C@H](CCC(N)=O)NC(=O)[C@H](Cc1ccccc1)NC(=O)[C@@H](NC(=O)[C@H](CCCCN)NC(=O)[C@H](CCCCN)NC(=O)[C@H](CC(C)C)NC(=O)[C@H](C)NC(=O)[C@H](CC(N)=O)NC(=O)[C@@H](N)CC(C)C)C(C)C)[C@@H](C)CC)[C@@H](C)CC)C(N)=O [LNALKKVFQKIHEAIKKI]
